The values that follow come from article PMC12217109, “Development of novel benzamide class I selective lysine deacetylase inhibitors as potent anticancer agents” (Journal of Enzyme Inhibition and Medicinal Chemistry, 2025).

“Also recorded” adds a separate entry of the source. Like-named read-outs stand apart in the source and are kept apart here.

Series [1] relates to MCF7 breast cancer cell line. The series can be described thus: MTT cellular viability assay, MCF7. It is filed as cell-based. The following applies: Homo sapiens, 96 h. The procedure: (§1) The human A2780 ovarian (#93112519) and MCF-7 breast (#86012803) cancer cell lines were obtained from the European Cell Culture Collection (ECACC; Salisbury, UK). The human cardiac ventricular AC16 cell line (#SCC109) was obtained from Merck/Millipore (UK). The A2780 and MCF-7 cell lines were maintained in RPMI-1640 medium and the AC16 cell line was maintained in DMEM/F12 medium. Culture medium of all three cell lines was supplemented with 10% heat-inactivated foetal bovine serum (FBS) and 2 mM L-glutamine, with the cells maintained in a humidified 5% CO2 atmosphere at 37 °C. The media was changed every 72h and the cells passaged via trypsinisation (Trypsin EDTA, 0.25%) before reaching confluency.
(§2) Cytotoxicity of each compound against the cell lines was assessed using the MTT assay. Cells were seeded in three replicates into 96-well plates at a density of 2 × 10^3/well for 24h to facilitate cell attachment. Media was replaced with that containing either test compound (0–10µM) for A2780 and MCF7 cell lines, single concentration (10 µM) test compound for AC16 cell line, or drug vehicle (dimethyl sulphoxide; DMSO) and the cells incubated for a further 96 h at 37 °C in a humidified 5% CO2 atmosphere. […] Chemosensitivity was thereafter assessed using a standard 3-[4, 5-dimethylthiazolyl]-2,5-diphenyltetrazolium bromide (MTT) assay, with the optical density determined at 540 nm as an indicator of cellular viability.

Another series has as its system SK-OV-3. Description: NCI-60 cytotoxicity screen. It is filed as cell-based. Particulars: Homo sapiens, NCI-60, 48 h, ovarian. An excerpt: (§3) Compounds 3–7 were submitted to the US National Cancer Institute (NIH, Bethesda, Maryland) for screening against the NCI-60 panel of human cancer cell lines, as per standard protocol.
The test system of another series is HCT116. Description: NCI-60 cytotoxicity screen. It is filed as cell-based. The following applies: Homo sapiens, HCT-116; NCI-60, 48 h, colon.
Excerpt: as §3

The test system of another series is HOP-92. Description: NCI-60 cytotoxicity screen. The series is classed as cell-based. Particulars: Homo sapiens, NCI-60, 48 h, NSCLC.
Excerpt: as §3

In another series the test system is MDA-MB-231. The series can be described thus: NCI-60 cytotoxicity screen. Particulars: Homo sapiens, MDA-MB-231, read-out: MDA-MB-231 cytotoxicity IC50; NCI-60, 48 h, breast. The series is classed as cell-based.
For another series, the system named is TK-10. The series can be described thus: NCI-60 cytotoxicity screen. The series is classed as cell-based, human. Particulars: for IC50: Homo sapiens, TK-10, NCI-60, 48 h, renal.
Excerpt: as §3

The subject of a further series is UACC-257. The series can be described thus: NCI-60 cytotoxicity screen. Particulars: for IC50: Homo sapiens, UACC-257, NCI-60, 48 h, melanoma. The series is classed as cell-based, human.
Excerpt: as §3

For another series, the system named is H322M. Description: NCI-60 cytotoxicity screen. It is filed as cell-based, human. Particulars: for IC50: Homo sapiens, NCI-H322M, NCI-60, 48 h, NSCLC.
Excerpt: as §3

Series [2] relates to AC16 ventricular cardiac cell line. Description: MTT cellular viability assay, AC16. Particulars: Homo sapiens, 96 h, single concentration 10 µM. The series is classed as cell-based. As for the experimental part: as §1, §2
A further series relates to K562. Description: NCI-60 cytotoxicity screen. The following applies: Homo sapiens, NCI-60, 48 h, leukaemia. It is filed as cell-based.
Series [3] relates to A2780 ovarian cancer cell line. The series can be described thus: MTT cellular viability assay, A2780. The series is classed as cell-based. Particulars: Homo sapiens. A general note: Tetrazolium assays rely on reduction of a dye to a coloured formazan, in cell work by metabolically active cells.
The next series relates to A498. Description: NCI-60 cytotoxicity screen. The series is classed as cell-based. Particulars: Homo sapiens, NCI-60, 48 h, renal.
Excerpt: as §3

Another series has as its system H226. Description: NCI-60 cytotoxicity screen. It is filed as cell-based. Particulars: Homo sapiens, NCI-60, 48 h, NSCLC.
Excerpt: as §3

For a further series, the system named is HT29. The series can be described thus: NCI-60 cytotoxicity screen. It is filed as cell-based. Particulars: Homo sapiens, HT-29; NCI-60, 48 h, colon.
Excerpt: as §3

The subject of another series is MOLT-4. Description: NCI-60 cytotoxicity screen. Particulars: Homo sapiens, NCI-60, 48 h, leukaemia. It is filed as cell-based.
Excerpt: as §3

The subject of a further series is MALME-3M. The series can be described thus: NCI-60 cytotoxicity screen. Particulars: Homo sapiens, read-out: MALME-3M cytotoxicity IC50, NCI-60, 48 h, melanoma. It is filed as cell-based.
Excerpt: as §3

The test system of the next series is acetylated tubulin. The series can be described thus: Flow cytometric analysis of tubulin acetylation in A2780 cells. The series is classed as cell-based, human. The following applies: A2780, 24 h, 10 µM. The procedure:
(§4) The method was adapted from Ronzoni et al.[67] as previously described. A2780 cells were exposed to test compounds (0–10 µM) for 24 h, fixed with ice-cold ethanol (70% v/v) and permeabilised in the presence of 0.1% Triton-X. Non-specific protein binding was blocked using normal goat serum prior to incubation with or without primary antibodies raised against either anti-hyperacetylated Histone H4 (Penta) antibody (Upstate Biotechnology, USA) or acetylated tubulin (Sigma-Aldrich, UK), followed by incubation with FITC-conjugated secondary antibody (Dako). Cells were incubated in propidium iodide (PI) staining buffer (PBS with 50 µg/ml PI and 10 µg/ml RNase A) and subsequently analysed by flow cytometry (BD FACSCalibur; Becton Dickinson, UK). At least 15 000 events per sample were acquired and expression determined based on the detection of FITC fluorescence through the FL1 channel (530/30 nm bandpass optical filter), with cell doublets discriminated by forward/side scatter and background fluorescence omitted via comparison to unlabelled controls. Expression analysis was performed using CellQuest™ software (Becton Dickinson, UK).
In general terms: In flow cytometry, cells or beads pass a laser one at a time.

In another series the test system is acetylated histone H4. The series can be described thus: Flow cytometric analysis of histone H4 acetylation in A2780 cells. The series is classed as cell-based, human. Particulars: A2780, 24 h, 5 µM or 10 µM. As for the experimental part:
as §4

The target of a further series is HDAC4 (Homo sapiens, UniProt P56524). Description: Inhibition of individual recombinant KDACs.
Sequence of HDAC4 (P56524 whole entry): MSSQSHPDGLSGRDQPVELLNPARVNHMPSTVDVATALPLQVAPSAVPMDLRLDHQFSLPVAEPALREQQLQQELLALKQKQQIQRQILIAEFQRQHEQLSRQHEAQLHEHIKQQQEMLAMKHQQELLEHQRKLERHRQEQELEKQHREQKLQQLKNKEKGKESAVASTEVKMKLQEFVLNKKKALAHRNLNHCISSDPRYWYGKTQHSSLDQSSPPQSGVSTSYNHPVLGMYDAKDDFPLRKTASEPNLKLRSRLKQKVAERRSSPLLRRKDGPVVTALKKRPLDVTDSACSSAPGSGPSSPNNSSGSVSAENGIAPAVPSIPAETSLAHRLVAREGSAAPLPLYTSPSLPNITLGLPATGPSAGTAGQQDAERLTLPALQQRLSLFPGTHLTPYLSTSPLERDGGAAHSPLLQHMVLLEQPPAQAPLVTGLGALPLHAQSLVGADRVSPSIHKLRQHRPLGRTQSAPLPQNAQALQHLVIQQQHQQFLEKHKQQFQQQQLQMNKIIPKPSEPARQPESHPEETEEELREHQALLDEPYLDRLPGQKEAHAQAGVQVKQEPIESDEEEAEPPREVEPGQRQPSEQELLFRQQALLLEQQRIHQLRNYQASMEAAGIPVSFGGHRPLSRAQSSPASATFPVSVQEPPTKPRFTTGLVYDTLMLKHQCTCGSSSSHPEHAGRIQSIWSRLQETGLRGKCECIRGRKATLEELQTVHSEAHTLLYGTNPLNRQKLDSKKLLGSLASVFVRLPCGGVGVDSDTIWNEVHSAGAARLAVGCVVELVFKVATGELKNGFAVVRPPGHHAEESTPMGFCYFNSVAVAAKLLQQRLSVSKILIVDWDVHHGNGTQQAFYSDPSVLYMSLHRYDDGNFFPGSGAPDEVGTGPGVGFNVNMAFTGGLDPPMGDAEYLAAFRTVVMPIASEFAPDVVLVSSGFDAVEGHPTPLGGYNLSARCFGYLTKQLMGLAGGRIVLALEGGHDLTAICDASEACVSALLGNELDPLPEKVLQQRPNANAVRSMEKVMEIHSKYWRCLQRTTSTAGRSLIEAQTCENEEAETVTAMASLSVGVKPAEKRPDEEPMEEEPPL
[4] abbreviates: A2780, MTT, 96 h, read-out: A2780 IC50.
Where [5] appears, read: listed as A2780* of Table 4, ovarian, values as in Tables 1 and 2 (MTT), read-out: A2780* cytotoxicity IC50.

In general, IC50 refers to the concentration needed to halve the response being measured. As for `C=C(CN1CCN(c2ccccn2)CC1)c1ccc(C(=O)Nc2ccccc2N)cc1` [Compound 6, N-(2-aminophenyl)-4–(3-(4-(pyridin-2-yl)piperazin-1-yl)prop-1-en-2-yl)benzamide], the IC50 in series [1] turned out to be 3200 ± 800 nM; with SK-OV-3, 1300 nM; in the series on HCT116, 2500 nM; with HOP-92, 5700 nM; in the series with MDA-MB-231, 2170 nM; in the series with TK-10, 1850 nM. The IC50 is 2320 nM in the series with UACC-257; 3120 nM in the series on H322M; > 10000 nM in series [2]; 960 nM in the series with K562; 3500 ± 1300 nM in series [3] (setting [4]); 3500 nM in series [3] (setting [5]).

`Nc1ccccc1NC(=O)c1ccc(CNC(=O)OCc2cccnc2)cc1` [Compound 1, Entinostat, reference compound]: the 50% inhibitory concentration (IC50) in [1] was 400 ± 100 nM; in the series with SK-OV-3, 2750 nM; with HCT116, 800 nM; in the series on A498, 360 nM; with H226, 600 nM; in the series with HT29, 1030 nM. Further, the IC50 with MOLT-4 was determined as 1930 nM; in the series with MALME-3M, 580 nM; in the series with HOP-92 it was 40 nM; in the series on TK-10, 290 nM; in the series on UACC-257, 1430 nM; with H322M it was 4790 nM. Besides, the IC50 in series [3] (setting [5]) was 600 nM. The “tubulin acetylation (flow cytometry)” value in the series with acetylated tubulin was “No change in Tubulin acetylation status; also recorded: neither 1 nor 7 induced a measurable change in tubulin acetylation”. Further, in the series with acetylated histone H4, the “acetylated histone H4 (flow cytometry)” value is reported as “Increased acetylated histone H4”.

With `C=C(CN1CCN(c2cccc(C(F)(F)F)n2)CC1)c1ccc(C(=O)Nc2ccccc2N)cc1` [Compound 7, N-(2-aminophenyl)-4–(3-(4–(6-(trifluoromethyl)pyridin-2-yl)piperazin-1-yl)prop-1-en-2-yl)benzamide], the IC50 worked out at 800 ± 300 nM in series [1]; 2550 nM in the series with SK-OV-3; 540 nM in the series on HCT116; 970 nM in the series with A498; 13400 nM in the series with H226; 560 nM in the series with HT29. Moreover, the IC50 with MOLT-4 was 860 nM; in the series with MALME-3M it was 1060 nM; in the series with MDA-MB-231 it was 4620 nM; in the series on TK-10, 16400 nM; with UACC-257 it was 26500 nM; in the series with H322M, > 100000 nM. In addition, the IC50 in [2] is > 10000 nM; at HDAC4 it was > 10000 nM; in [3] (setting [4]) it was 800 ± 100 nM; in series [3] (setting [5]), 800 nM. Also, the “tubulin acetylation (flow cytometry)” value in the series with acetylated tubulin is on record as “No change in Tubulin acetylation status; also recorded: neither 1 nor 7 induced a measurable change in tubulin acetylation”. Moreover, in the series with acetylated histone H4, the “acetylated histone H4 (flow cytometry)” value is listed as “Increased acetylated histone H4; also recorded: Increased induction in histone H4 acetylation”.

Take `C=C(CN1CCN(c2ccccc2C(F)(F)F)CC1)c1ccc(C(=O)Nc2ccccc2N)cc1` [Compound 3, N-(2-aminophenyl)-4–(3-(4–(2-(trifluoromethyl)phenyl)piperazin-1-yl)prop-1-en-2-yl)benzamide]: the IC50 in [1] came out at 7300 ± 400 nM; with SK-OV-3, 11000 nM; in the series with HCT116, 3090 nM; in the series with A498, 3550 nM; in the series with H226 it was 7780 nM; in the series with HT29, 4090 nM. The IC50 in the series on MOLT-4 was 130 nM; in the series with MALME-3M it was 4180 nM; in the series with HOP-92, 1850 nM; in the series with MDA-MB-231, 4680 nM; with TK-10, 4630 nM; in the series on UACC-257, 4670 nM. Moreover, the IC50 in the series with H322M is 11400 nM; in series [2], > 10000 nM; in the series on K562, 1540 nM; in series [3] (setting [4]), 7500 ± 700 nM; in [3] (setting [5]), 7500 nM.

Regarding `C=C(CN1CCN(c2cccc(C(F)(F)F)c2)CC1)c1ccc(C(=O)Nc2ccccc2N)cc1` [Compound 4, N-(2-aminophenyl)-4–(3-(4–(3-(trifluoromethyl)phenyl)piperazin-1-yl)prop-1-en-2-yl)benzamide], the IC50 in series [1] stood at 1400 ± 100 nM; with HCT116, 1140 nM; in the series on A498, 10 nM; in the series on H226, 1890 nM; in the series with HT29 it was 1460 nM; with MOLT-4 it was 130 nM. Moreover, the IC50 in the series on HOP-92 was 1510 nM; in the series on MDA-MB-231, 940 nM; in the series with TK-10, 810 nM; in the series with UACC-257 it was 760 nM; in the series on H322M, 940 nM; in series [2] it was > 10000 nM. The IC50 with K562 came out at 180 nM; in [3] (setting [4]) it was 1600 ± 500 nM; in series [3] (setting [5]), 1600 nM. In addition, in the series with TK-10 (TK-10 renal), the “fold improvement in cytotoxicity sensitivity compared to 7, TK-10” value was ~20 fold. Further, the “fold improvement in cytotoxicity sensitivity compared to 7, UACC-257” value in the series with UACC-257 (UACC-257 melanoma) is recorded as ~35 fold. For the same compound, the “fold improvement in cytotoxicity sensitivity compared to 7, H322M” value with H322M (H322M NSCLC) is on record as “approximately 100 fold”.

On to `C=C(CN1CCN(c2ccc(C(F)(F)F)cc2)CC1)c1ccc(C(=O)Nc2ccccc2N)cc1` [Compound 5, N-(2-aminophenyl)-4–(3-(4–(4-(trifluoromethyl)phenyl)piperazin-1-yl)prop-1-en-2-yl)benzamide], for which the IC50 in [1] came to 400 ± 400 nM; in the series with SK-OV-3 it was 12100 nM; in the series with HCT116 it was 11400 nM; in the series on A498 it was 7670 nM; with H226, 7520 nM; in the series with HT29 it was 75700 nM. Also, the IC50 is 600 nM in the series on MOLT-4; 19300 nM with MALME-3M; 3940 nM with HOP-92; 3600 nM in the series with MDA-MB-231; 21000 nM with TK-10; 2390 nM with UACC-257. Also, the IC50 in the series on H322M is 40500 nM; in series [2] it was > 10000 nM; with K562, 300 nM; in series [3] (setting [4]) it was 1900 ± 400 nM; in series [3] (setting [5]), 1900 nM.
